Columns and labels:
[1] = Pharmacokinetic evaluation in mice; type: in vivo; conditions: male CD-1 mice
Description: • CD-1 mice (male, 7 to 9 weeks old, Shanghai SLAC)
The pharmacokinetic characteristics of the compound in rodents were tested using a standard protocol after intravenous injection (IV) and oral (PO) administration. In the experiment, mice were given a single intravenous injection and oral administration. The solvent for the intravenous injection was water. The solvent for oral administration was 0.5% hydroxypropyl methylcellulose. This project involved four male CD-1 mice. Two of the mice were administered a dose of 0.5 mg/kg via intravenous injection. Plasma samples were collected at 0 hours (before administration) and at 0.083, 0.25, 0.5, 1, 2, 4, 8, and 24 hours after administration. The other two mice were administered a dose of 2.5 mg/kg via oral gavage. Plasma samples were collected at 0 h (before administration) and at 0.25, 0.5, 1, 2, 4, 8, and 24 hours after administration. Whole blood samples were collected within 24 hours, centrifuged at 3000 g for 15 minutes, and the supernatant was separated to obtain plasma samples. Four times the volume of acetonitrile solution containing an internal standard was added to precipitate the protein. After centrifugation, the supernatant was collected, an equal volume of water was added, and it was centrifuged again to collect the supernatant for sampling. The plasma concentration was quantitatively analyzed by LC-MS/MS analysis method, and the pharmacokinetic parameters were calculated, such as peak concentration (Cmax), clearance rate (CL), half-life (T1/2), volume of distribution at steady state (Vdss), area under drug-time curve (AUC0-last), bioavailability (F).

[2] = Toxicological evaluation (with toxicokinetics) of rats administered for 21 consecutive days; conditions: SD, rat, in vivo, po
Description: • SD rats (male and female, 7 to 8 weeks old, Zhejiang Vital River Laboratory Animal Technology Co., Ltd.).
• In this experiment, SD rats were administered orally once a day with a test substance, a candidate drug for treating cancer, for 21 days to detect its potential toxicity. At the same time, the toxicokinetic (TK) characteristics of the compound in the animals were examined.
126 rats (63 per gender) were divided into 6 groups. In the main test administration groups, each group had 5 males and 5 females. In the TK test control group, there were 3 males and 3 females. In the administration groups, each group had 6 males and 6 females. The compound was administered once a day at doses of 1, 3, 10, 20 milligrams per kilogram per day (mg/kg/day). The control group was only given the solvent. The volume of administration was 10 mL/kg. At the start of administration, the animals were 7 to 8 weeks old, with male weights ranging from 251.11 to 308.11 grams, and female weights from 181.53 to 219.03 grams.
The evaluation items include mortality (moribund/death), clinical symptoms, body weight, food consumption, clinical pathology (hematology, serum biochemistry, coagulation), gross (necropsy) evaluation, organ weights, histopathological evaluation, and toxicokinetics. The toxicokinetic parameters include peak concentration (Cmax), time to maximum drug concentration (Tmax), and area under the drug-time curve (AUC0-last).

[3] = female, 1 mg/kg/day, female, oral 1 mg/kg/day, Day 1
[4] = female, 1 mg/kg/day, female, oral 1 mg/kg/day, Day 21
[5] = female, 3 mg/kg/day, female, oral 3 mg/kg/day, Day 1
[6] = female, 3 mg/kg/day, female, oral 3 mg/kg/day, Day 21
[7] = female, 10 mg/kg/day, female, oral 10 mg/kg/day, Day 1
[8] = female, 10 mg/kg/day, female, oral 10 mg/kg/day, Day 21
[9] = female, 20 mg/kg/day, female, oral 20 mg/kg/day, Day 1
[10] = female, 20 mg/kg/day, female, oral 20 mg/kg/day, Day 21
[11] = male, 1 mg/kg/day, male, oral 1 mg/kg/day, Day 1
[12] = male, 1 mg/kg/day, male, oral 1 mg/kg/day, Day 21
[13] = male, 3 mg/kg/day, male, oral 3 mg/kg/day, Day 1
[14] = male, 3 mg/kg/day, male, oral 3 mg/kg/day, Day 21
[15] = male, 10 mg/kg/day, male, oral 10 mg/kg/day, Day 1
[16] = male, 10 mg/kg/day, male, oral 10 mg/kg/day, Day 21
[17] = male, 20 mg/kg/day, male, oral 20 mg/kg/day, Day 1
[18] = male, 20 mg/kg/day, male, oral 20 mg/kg/day, Day 21

With `Cn1cc(-c2cnc(CNc3nccn4c(-c5cc(F)cc(F)c5)cnc34)cn2)ccc1=O` [Compound 2] the F ([1]; IV 0.5 mg/kg, PO 2.5 mg/kg) was 29.4%, the clearance ([1]; mouse, plasma, IV 0.5 mg/kg) was 5.37 mL/min/kg and the half-life ([1]; mouse, plasma, IV 0.5 mg/kg, read-out: T1/2 (IV) (converted)) was 5.99 h. The Vd ([1]; mouse, plasma, IV 0.5 mg/kg, read-out: Vdss) was 0.568 L/kg, the AUC(0-t) ([1]; mouse, plasma, PO 2.5 mg/kg, read-out: AUC0-last (PO)) was 20.5 µM·h and the Cmax ([1]; mouse, plasma) was 1.76 µM. It also gave a Cmax [2, 3] of 1.02 µM, a Tmax [2, 3] of 4 h and an AUC(0-t) ([2]; female, 1 mg/kg/day, female, oral 1 mg/kg/day, Day 1, read-out: AUC0-24 h) of 14.5 µM·h. For the same compound, the Cmax [2, 4] was 1.58 µM, the Tmax [2, 4] was 8 h and the AUC(0-t) ([2]; female, 1 mg/kg/day, female, oral 1 mg/kg/day, Day 21, read-out: AUC0-24 h) was 25.6 µM·h. For the same compound, the Cmax [2, 5] was 2.27 µM, the Tmax [2, 5] was 8 h and the AUC(0-t) ([2]; female, 3 mg/kg/day, female, oral 3 mg/kg/day, Day 1, read-out: AUC0-24 h) was 33.2 µM·h. For the same compound, the Cmax [2, 6] was 4.18 µM, the Tmax [2, 6] was 8 h and the AUC(0-t) ([2]; female, 3 mg/kg/day, female, oral 3 mg/kg/day, Day 21, read-out: AUC0-24 h) was 63.8 µM·h. The Cmax [2, 7] was 3.93 µM, the Tmax [2, 7] was 4 h and the AUC(0-t) ([2]; female, 10 mg/kg/day, female, oral 10 mg/kg/day, Day 1, read-out: AUC0-24 h) was 77.7 µM·h. The Cmax [2, 8] was 8.8 µM, the Tmax [2, 8] was 8 h and the AUC(0-t) ([2]; female, 10 mg/kg/day, female, oral 10 mg/kg/day, Day 21, read-out: AUC0-24 h) was 144 µM·h. For the same compound, the Cmax [2, 9] was 6.17 µM, the Tmax [2, 9] was 8 h and the AUC(0-t) ([2]; female, 20 mg/kg/day, female, oral 20 mg/kg/day, Day 1, read-out: AUC0-24 h) was 101 µM·h. The Cmax [2, 10] was 10.3 µM, the Tmax [2, 10] was 8 h and the AUC(0-t) ([2]; female, 20 mg/kg/day, female, oral 20 mg/kg/day, Day 21, read-out: AUC0-24 h) was 179 µM·h. For the same compound, the Cmax [2, 11] was 0.97 µM, the Tmax [2, 11] was 8 h and the AUC(0-t) ([2]; male, 1 mg/kg/day, male, oral 1 mg/kg/day, Day 1, read-out: AUC0-24 h) was 12.5 µM·h. For the same compound, the Cmax [2, 12] was 1.62 µM, the Tmax [2, 12] was 8 h and the AUC(0-t) ([2]; male, 1 mg/kg/day, male, oral 1 mg/kg/day, Day 21, read-out: AUC0-24 h) was 22.4 µM·h. For the same compound, the Cmax [2, 13] was 1.88 µM, the Tmax [2, 13] was 8 h and the AUC(0-t) ([2]; male, 3 mg/kg/day, male, oral 3 mg/kg/day, Day 1, read-out: AUC0-24 h) was 23.1 µM·h. For the same compound, the Cmax [2, 14] was 3.5 µM, the Tmax [2, 14] was 8 h and the AUC(0-t) ([2]; male, 3 mg/kg/day, male, oral 3 mg/kg/day, Day 21, read-out: AUC0-24 h) was 50.1 µM·h. It also gave a Cmax [2, 15] of 2.96 µM, a Tmax [2, 15] of 4 h and an AUC(0-t) ([2]; male, 10 mg/kg/day, male, oral 10 mg/kg/day, Day 1, read-out: AUC0-24 h) of 47.4 µM·h. For the same compound, the Cmax [2, 16] was 6.87 µM, the Tmax [2, 16] was 8 h and the AUC(0-t) ([2]; male, 10 mg/kg/day, male, oral 10 mg/kg/day, Day 21, read-out: AUC0-24 h) was 110 µM·h. For the same compound, the Cmax [2, 17] was 4.24 µM, the Tmax [2, 17] was 8 h and the AUC(0-t) ([2]; male, 20 mg/kg/day, male, oral 20 mg/kg/day, Day 1, read-out: AUC0-24 h) was 76.6 µM·h. It also gave a Cmax [2, 18] of 7.34 µM, a Tmax [2, 18] of 8 h and an AUC(0-t) ([2]; male, 20 mg/kg/day, male, oral 20 mg/kg/day, Day 21, read-out: AUC0-24 h) of 123 µM·h.
